Values joined by “and” are separate entries in the source; they are usually repeats but may differ in a detail not shown here. Equal values may be shown once. Numbers after ± are expanded uncertainties.
Test: molar heat capacity at constant pressure
Conditions: 101.33 kPa, Crystal, relaxation calorimetry

O[C@H]1[C@H](O)[C@H](O)OC[C@H]1O [β-D-arabinopyranose]
Conditions | molar heat capacity at constant pressure
0.5 K | 0.0007532 ± 8.2e-05 J/K/mol
1 K | 0.00191 ± 0.00016 J/K/mol
1.5 K | 0.0039 ± 0.0003 J/K/mol
1.93 K | 0.00664 ± 0.00052 J/K/mol
2 K | 0.007206 ± 0.00053 J/K/mol
2.03 K | 0.00744 ± 0.00058 J/K/mol
2.14 K | 0.00853 ± 0.00066 J/K/mol
2.26 K | 0.00959 ± 0.00073 J/K/mol
2.38 K | 0.01108 ± 0.00083 J/K/mol
2.5 K | 0.01239 ± 0.0009 J/K/mol
2.51 K | 0.01247 ± 0.00092 J/K/mol
2.64 K | 0.01457 ± 0.0011 J/K/mol
2.78 K | 0.01653 ± 0.0012 J/K/mol
2.94 K | 0.01919 ± 0.0014 J/K/mol
3 K | 0.02013 ± 0.0015 J/K/mol
3.1 K | 0.02195 ± 0.0016 J/K/mol
3.27 K | 0.02605 ± 0.0019 J/K/mol
3.43 K | 0.02956 ± 0.0021 J/K/mol
3.5 K | 0.03122 ± 0.0022 J/K/mol
3.63 K | 0.03481 ± 0.0025 J/K/mol
3.81 K | 0.03999 ± 0.0029 J/K/mol
4 K | 0.04664 ± 0.0033 J/K/mol
4.03 K | 0.04762 ± 0.0034 J/K/mol
4.23 K | 0.05477 ± 0.0039 J/K/mol
4.47 K | 0.06546 ± 0.0047 J/K/mol
4.5 K | 0.06755 ± 0.0048 J/K/mol
4.7 K | 0.07779 ± 0.0056 J/K/mol
4.96 K | 0.09273 ± 0.0066 J/K/mol
5 K | 0.09528 ± 0.0068 J/K/mol
5.22 K | 0.109 ± 0.0077 J/K/mol
5.5 K | 0.1311 ± 0.0093 J/K/mol and 0.1314 ± 0.0093 J/K/mol
5.79 K | 0.157 ± 0.011 J/K/mol
6 K | 0.1776 ± 0.013 J/K/mol
6.1 K | 0.19 ± 0.013 J/K/mol
6.42 K | 0.2256 ± 0.016 J/K/mol
6.5 K | 0.2359 ± 0.017 J/K/mol
6.77 K | 0.2719 ± 0.019 J/K/mol
7 K | 0.308 ± 0.022 J/K/mol
7.12 K | 0.328 ± 0.023 J/K/mol
7.5 K | 0.396 ± 0.028 J/K/mol
7.51 K | 0.3961 ± 0.028 J/K/mol
7.9 K | 0.4794 ± 0.034 J/K/mol
8 K | 0.5015 ± 0.035 J/K/mol
8.33 K | 0.5808 ± 0.041 J/K/mol
8.5 K | 0.6256 ± 0.044 J/K/mol
8.76 K | 0.6949 ± 0.049 J/K/mol
9 K | 0.7669 ± 0.054 J/K/mol
9.24 K | 0.8445 ± 0.059 J/K/mol
9.5 K | 0.9266 ± 0.065 J/K/mol
9.72 K | 1.004 ± 0.07 J/K/mol
10 K | 1.105 ± 0.077 J/K/mol
10.23 K | 1.191 ± 0.083 J/K/mol
10.77 K | 1.405 ± 0.098 J/K/mol
11 K | 1.517 ± 0.11 J/K/mol
11.32 K | 1.667 ± 0.12 J/K/mol
11.92 K | 1.965 ± 0.14 J/K/mol
12 K | 2 ± 0.14 J/K/mol
12.56 K | 2.311 ± 0.16 J/K/mol
13 K | 2.549 ± 0.18 J/K/mol
13.23 K | 2.685 ± 0.19 J/K/mol
13.94 K | 3.128 ± 0.22 J/K/mol
14 K | 3.158 ± 0.22 J/K/mol
14.68 K | 3.61 ± 0.25 J/K/mol
15 K | 3.821 ± 0.27 J/K/mol
15.46 K | 4.149 ± 0.29 J/K/mol
16 K | 4.53 ± 0.32 J/K/mol
16.31 K | 4.747 ± 0.33 J/K/mol
17 K | 5.279 ± 0.37 J/K/mol
17.15 K | 5.4 ± 0.38 J/K/mol
18 K | 6.059 ± 0.42 J/K/mol
18.08 K | 6.128 ± 0.43 J/K/mol
19 K | 6.866 ± 0.48 J/K/mol
19.05 K | 6.89 ± 0.48 J/K/mol
20 K | 7.693 ± 0.54 J/K/mol
20.08 K | 7.769 ± 0.32 J/K/mol
21.14 K | 8.663 ± 0.35 J/K/mol
22.3 K | 9.532 ± 0.39 J/K/mol
23.47 K | 10.62 ± 0.43 J/K/mol
24.74 K | 11.68 ± 0.47 J/K/mol
25 K | 11.98 ± 0.49 J/K/mol
26.04 K | 12.89 ± 0.52 J/K/mol
27.46 K | 14.03 ± 0.57 J/K/mol
28.89 K | 15.45 ± 0.63 J/K/mol
30 K | 16.33 ± 0.66 J/K/mol
30.43 K | 16.8 ± 0.68 J/K/mol
32.08 K | 18.29 ± 0.74 J/K/mol
33.81 K | 19.73 ± 0.8 J/K/mol
35 K | 20.68 ± 0.84 J/K/mol
35.6 K | 21.31 ± 0.87 J/K/mol
37.52 K | 22.92 ± 0.93 J/K/mol
39.51 K | 24.55 ± 1 J/K/mol
40 K | 25.02 ± 1 J/K/mol

Source: the NIST ThermoML archive (doi:10.1016/j.jct.2015.08.031)
